SMILES strings stand for the structures.

Data set [1] relates to Rattus norvegicus. In words: Antidepressant activity in Wistar rat assessed as immobility time at 45 mg/kg, ip measured for 5 mins by forced swim test (reference value: 271.9 +/- 7.2 sec). It is filed as functional.
Data set [2] addresses Neuronal acetylcholine receptor; alpha4/beta2 (Homo sapiens, UniProt P17787+P43681). In words: Displacement of [3H]cytisine from human alpha4beta2 nAChR expressed in CHOK1 cell membrane by microbeta scintillation counting method. Type of data set: cell membranes, CHO-K1.
For data set [3], the target named is Neuronal acetylcholine receptor; alpha3/beta4 (Homo sapiens, UniProt P30926+P32297). In words: Displacement of [3H]epibatidine from human alpha3beta4 nAChR expressed in IMR32 cell membrane by microbeta scintillation counting method. It is filed as cell membranes, IMR-32. A general note: In a radioligand displacement assay an active substance lowers the binding of a labelled ligand.

Data set [4] is described as follows: Metabolic stability in human liver microsomes assessed as compound metabolism incubated for 30 mins in presence of NADPH by LC-MS/MS analysis. It is filed as ADME, Microsome. Conditions: read-out: Drug metabolism.
Data set [5] is described as follows: Metabolic stability in rat liver microsomes assessed as compound metabolism incubated for 30 mins in presence of NADPH by LC-MS/MS analysis. The following applies: read-out: Drug metabolism. It is filed as ADME, Microsome.
Data set [6] can be described thus: Oral bioavailability in Wistar rat at 10 ml/kg measured upto 24 hrs by LC-MS/MS analysis. It is filed as ADME, organism-based. Conditions: in vivo.
Data set [7] is described as follows: Cmax in Wistar rat at 10 ml/kg, po or 2 ml/kg, iv measured upto 24 hrs by LC-MS/MS analysis. It is filed as ADME, organism-based. Conditions: in vivo.
The nature of data set [8]: AUC in Wistar rat at 10 ml/kg, po or 2 ml/kg, iv measured upto 24 hrs by LC-MS/MS analysis. It is filed as ADME, organism-based. Conditions: in vivo.
Data set [9] is described as follows: Half life in Wistar rat at 10 ml/kg, po or 2 ml/kg, iv measured upto 24 hrs by LC-MS/MS analysis. It is filed as ADME, organism-based. Conditions: in vivo.
A short description of data set [10]: Ratio of drug level in brain to plasma in Wistar rat at 10 ml/kg, po or 2 ml/kg, iv measured upto 24 hrs by LC-MS/MS analysis. The following applies: brain and plasma, read-out: BPR. It is filed as ADME, organism-based.
The target of another data set is Cytochrome P450 2D6 (Homo sapiens, UniProt P10635). As to the kind of experiment: Inhibition of CYP2D6 in human liver microsomes using dextromethorphan as substrate incubated for 12 min in presence of NADPH by LC-MS/MS analysis. Type of data set: ADME.
The next data set has as its target Cytochrome P450 3A4 (Homo sapiens, UniProt P08684). As to the kind of experiment: Inhibition of CYP3A4 in human liver microsomes using midazolam as substrate incubated for 2 min in presence of NADPH by LC-MS/MS analysis. It is filed as ADME. In general terms: Liver microsomes are vesicles of endoplasmic reticulum, rich in cytochrome P450 enzymes.
The subject of data set [11] is Rattus norvegicus. As to the kind of experiment: Antidepressant activity in Wistar rat assessed as reduction in immobility at 1 mg/kg, po administrated for 3 days and measured for 5 mins by forced swim test relative to control. It is filed as functional. Details: scale not given: the % may be the effect or the level left.
The test system of data set [12] is Rattus norvegicus. As to the kind of experiment: Antidepressant activity in Wistar rat assessed as reduction in immobility at 3 mg/kg, po administrated for 3 days and measured for 5 mins by forced swim test relative to control. Also noted: scale not given: the % may be the effect or the level left. It is filed as functional.
In data set [13] the test system is Rattus norvegicus. In words: Antidepressant activity in Wistar rat assessed as reduction in immobility at 10 mg/kg, po administrated for 3 days and measured for 5 mins by forced swim test relative to control. Type of data set: functional. Details: scale not given: the % may be the effect or the level left.
Data set [14] deals with Rattus norvegicus. As to the kind of experiment: Antidepressant activity in Wistar rat assessed as immobility time at 3.0 mg/kg, po measured for 5 mins by forced swim test (reference value: 241.9 to 281.6 sec). Type of data set: functional.
Data set [15] concerns Rattus norvegicus. As to the kind of experiment: Antidepressant activity in Wistar rat assessed as immobility time at 10.0 mg/kg, po measured for 5 mins by forced swim test (reference value: 241.9 to 281.6 sec). Type of data set: functional.

Chain of Neuronal acetylcholine receptor; alpha3/beta4 (P30926 whole entry): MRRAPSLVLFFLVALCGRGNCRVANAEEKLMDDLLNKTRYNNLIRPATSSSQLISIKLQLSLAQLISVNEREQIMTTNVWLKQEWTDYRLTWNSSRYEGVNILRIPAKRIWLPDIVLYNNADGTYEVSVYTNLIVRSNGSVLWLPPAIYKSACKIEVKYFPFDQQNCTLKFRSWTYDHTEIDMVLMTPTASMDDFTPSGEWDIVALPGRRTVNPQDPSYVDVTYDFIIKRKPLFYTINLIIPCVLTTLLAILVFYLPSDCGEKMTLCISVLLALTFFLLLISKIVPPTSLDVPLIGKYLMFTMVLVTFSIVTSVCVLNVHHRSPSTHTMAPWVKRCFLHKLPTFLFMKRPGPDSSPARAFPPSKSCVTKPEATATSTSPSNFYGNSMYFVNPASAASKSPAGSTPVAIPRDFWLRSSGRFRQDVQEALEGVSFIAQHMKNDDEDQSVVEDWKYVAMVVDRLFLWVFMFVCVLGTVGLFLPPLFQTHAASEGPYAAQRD
Chain of Neuronal acetylcholine receptor; alpha3/beta4 (P32297 whole entry): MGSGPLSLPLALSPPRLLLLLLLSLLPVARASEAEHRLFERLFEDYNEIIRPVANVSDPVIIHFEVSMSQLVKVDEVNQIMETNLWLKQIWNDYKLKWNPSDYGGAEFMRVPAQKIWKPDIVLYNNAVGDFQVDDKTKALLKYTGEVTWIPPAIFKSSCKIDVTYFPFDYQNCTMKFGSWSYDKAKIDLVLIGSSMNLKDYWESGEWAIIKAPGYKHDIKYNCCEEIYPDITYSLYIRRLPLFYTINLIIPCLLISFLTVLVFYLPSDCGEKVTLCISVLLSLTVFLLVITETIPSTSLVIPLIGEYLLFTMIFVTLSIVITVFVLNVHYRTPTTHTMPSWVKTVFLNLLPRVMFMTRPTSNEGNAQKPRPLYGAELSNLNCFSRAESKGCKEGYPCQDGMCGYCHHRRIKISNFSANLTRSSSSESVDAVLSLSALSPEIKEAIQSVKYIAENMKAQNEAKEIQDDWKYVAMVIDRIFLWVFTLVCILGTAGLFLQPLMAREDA
Chain of Cytochrome P450 3A4 (P08684 whole entry): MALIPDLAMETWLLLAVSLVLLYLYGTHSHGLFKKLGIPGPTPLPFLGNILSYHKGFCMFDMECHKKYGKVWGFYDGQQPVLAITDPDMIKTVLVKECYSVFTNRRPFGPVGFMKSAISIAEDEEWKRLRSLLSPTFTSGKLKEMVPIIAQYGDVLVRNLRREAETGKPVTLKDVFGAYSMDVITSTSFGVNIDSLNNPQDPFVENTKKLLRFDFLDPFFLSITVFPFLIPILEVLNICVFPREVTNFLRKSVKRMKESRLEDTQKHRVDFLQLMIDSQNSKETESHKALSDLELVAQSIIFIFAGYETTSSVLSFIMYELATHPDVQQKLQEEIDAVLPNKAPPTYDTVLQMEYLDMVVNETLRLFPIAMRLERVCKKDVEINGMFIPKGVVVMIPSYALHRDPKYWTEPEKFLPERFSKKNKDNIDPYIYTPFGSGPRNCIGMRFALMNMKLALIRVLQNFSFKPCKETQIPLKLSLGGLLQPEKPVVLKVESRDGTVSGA
Chain of Neuronal acetylcholine receptor; alpha4/beta2 (P17787 whole entry): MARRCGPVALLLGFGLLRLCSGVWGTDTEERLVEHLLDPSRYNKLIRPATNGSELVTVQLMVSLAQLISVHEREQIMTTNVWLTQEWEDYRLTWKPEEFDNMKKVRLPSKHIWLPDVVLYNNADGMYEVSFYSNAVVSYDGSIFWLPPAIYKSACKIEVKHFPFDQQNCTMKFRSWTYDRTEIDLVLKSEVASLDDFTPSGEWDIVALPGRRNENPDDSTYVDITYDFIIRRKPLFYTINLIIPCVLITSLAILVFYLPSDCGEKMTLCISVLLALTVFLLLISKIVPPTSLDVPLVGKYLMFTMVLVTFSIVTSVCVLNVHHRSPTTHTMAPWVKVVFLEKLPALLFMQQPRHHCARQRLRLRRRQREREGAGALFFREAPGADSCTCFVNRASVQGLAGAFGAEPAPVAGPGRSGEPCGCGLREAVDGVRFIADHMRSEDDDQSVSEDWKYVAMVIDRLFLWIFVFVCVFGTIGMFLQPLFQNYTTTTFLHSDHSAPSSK
Chain of Neuronal acetylcholine receptor; alpha4/beta2 (P43681 whole entry): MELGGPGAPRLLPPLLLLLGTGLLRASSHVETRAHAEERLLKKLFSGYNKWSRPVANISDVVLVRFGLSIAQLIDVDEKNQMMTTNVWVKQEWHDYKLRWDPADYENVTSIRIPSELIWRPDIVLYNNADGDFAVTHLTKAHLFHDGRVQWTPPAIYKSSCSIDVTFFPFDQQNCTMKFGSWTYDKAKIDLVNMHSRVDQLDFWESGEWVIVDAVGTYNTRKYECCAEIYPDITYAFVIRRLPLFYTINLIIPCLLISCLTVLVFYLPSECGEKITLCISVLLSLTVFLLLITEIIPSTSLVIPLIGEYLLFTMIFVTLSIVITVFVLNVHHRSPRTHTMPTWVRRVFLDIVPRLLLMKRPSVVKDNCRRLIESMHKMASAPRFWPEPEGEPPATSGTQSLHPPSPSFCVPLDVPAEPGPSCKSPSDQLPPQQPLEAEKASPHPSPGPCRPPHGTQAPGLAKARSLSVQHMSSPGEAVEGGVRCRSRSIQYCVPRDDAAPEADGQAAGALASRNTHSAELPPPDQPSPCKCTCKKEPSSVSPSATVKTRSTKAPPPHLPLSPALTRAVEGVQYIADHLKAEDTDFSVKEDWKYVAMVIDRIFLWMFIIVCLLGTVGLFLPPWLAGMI
Chain of Cytochrome P450 2D6 (P10635 whole entry): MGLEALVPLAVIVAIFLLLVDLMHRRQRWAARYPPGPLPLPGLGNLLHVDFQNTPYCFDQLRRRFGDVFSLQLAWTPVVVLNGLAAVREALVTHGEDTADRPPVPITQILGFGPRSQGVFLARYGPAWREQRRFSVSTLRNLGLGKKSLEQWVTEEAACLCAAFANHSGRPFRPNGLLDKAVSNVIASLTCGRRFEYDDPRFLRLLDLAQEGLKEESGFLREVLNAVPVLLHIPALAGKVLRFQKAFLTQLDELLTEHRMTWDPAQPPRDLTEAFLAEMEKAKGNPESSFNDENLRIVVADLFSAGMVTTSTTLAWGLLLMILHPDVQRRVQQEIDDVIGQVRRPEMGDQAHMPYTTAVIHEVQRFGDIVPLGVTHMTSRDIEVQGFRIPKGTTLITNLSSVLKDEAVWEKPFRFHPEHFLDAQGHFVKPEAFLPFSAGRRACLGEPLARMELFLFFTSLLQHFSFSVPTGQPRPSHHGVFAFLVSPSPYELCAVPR

Turning to `CN(C)CCCN1c2ccccc2CCc2ccccc21` [IMIPRAMINE], the Time in the data set on Rattus norvegicus [1] was determined as 176.5 s.

The Ki is a dissociation constant, usually derived from enzyme kinetics or from competition with a known ligand. As usually defined, the bioavailability is the share of a dose that reaches the circulation, judged against a reference dose that is usually intravenous. One may read the Cmax as the highest concentration seen after dosing. As a reminder, the AUC is the area under the concentration-time curve, a measure of exposure. Usually half-life stands for how long it takes for the measured level to halve. For orientation: IC50 means the point on the concentration scale where inhibition reaches its midpoint. As to `Cl.Clc1ncccc1OC[C@@H]1C[C@H]2C[C@H]2N1`, the inhibition constant Ki was 0.0175 µM in data set [2] and > 10 µM in data set [3]. For the same compound, the results for the metabolised at 0.5 h in data set [4] and in data set [5] were 29.5% and 14.9%, respectively. Besides, the bioavailability in data set [6] turned out to be 54%. The compound further displayed a Cmax in data set [7] of 921 ng/mL. The same compound had an area under the curve (AUC) at 24 h in [8] of 2160 ng·h/mL. This compound showed a half-life in data set [9] of 2.15 h. For the same compound, in [10], the Kp at 24 h amounted to 3.6. In addition, the IC50 was > 42 µM at Cytochrome P450 2D6 and > 45 µM at Cytochrome P450 3A4. Further, the Activity with Rattus norvegicus [11] is on record as 10%; in the data set with Rattus norvegicus [12], 24.7%; with Rattus norvegicus [13], 15.8%.

For the compound `Cl.Fc1ccc(OC[C@@H]2C[C@H]3C[C@H]3N2)cn1`, the Ki in data set [2] is 0.0039 µM; in data set [3], > 10 µM. For the same compound, the metabolised at 0.5 h in data set [4] was 10.7%; in data set [5], 5.1%. This compound gave a bioavailability in data set [6] of 96%. The compound also came in with a Cmax in data set [7] of 3760 ng/mL. The compound further returned an AUC at 24 h in [8] of 15600 ng·h/mL. The same compound had a half-life in data set [9] of 4.02 h. Also, the Kp at 24 h in [10] turned out to be 2.38. The concentration for half-maximal inhibition (IC50) at Cytochrome P450 2D6 and at Cytochrome P450 3A4 was > 45 µM throughout. Besides, the Time is 259.6 s with Rattus norvegicus [14] and 263.5 s in the data set on Rattus norvegicus [15].

Consider `Cl.c1cncc(OC[C@@H]2C[C@H]3C[C@H]3N2)c1`, for which the inhibition constant Ki in data set [2] was 0.0079 µM; in data set [3], > 10 µM. Also, the figures for the metabolised at 0.5 h in data set [4] and in [5] were 12.1% and 17.9%, respectively. In [6], this compound gave a bioavailability of 92%. In data set [7], this compound showed a Cmax of 7610 ng/mL. This compound also gave an exposure (AUC) at 24 h in [8] of 10900 ng·h/mL. In data set [9], this compound had a half-life of 4.19 h. In addition, in data set [10], the Kp at 24 h came out at 3.8. The IC50 at Cytochrome P450 2D6 was 26.2 µM; at Cytochrome P450 3A4, > 45 µM. Besides, the figures for the Time with Rattus norvegicus [14] and with Rattus norvegicus [15] were 231 s and 210.4 s, respectively.

Turning to `Cl.Clc1ccc(OC[C@H]2C[C@@H]3C[C@@H]3N2)cn1`, the Ki was 0.039 µM in data set [2] and 6.01 µM in data set [3]. Besides, the metabolised at 0.5 h in data set [4] is 42.2%; in data set [5] it was 26.2%. Further, the bioavailability in data set [6] came to 35%. The highest concentration (Cmax) in data set [7] was 1190 ng/mL. The AUC at 24 h in data set [8] was 1770 ng·h/mL. Also, in data set [9], the half-life is 1.6 h. Moreover, the Kp at 24 h in data set [10] stood at 3.83. Moreover, the concentration for half-maximal inhibition (IC50) at Cytochrome P450 2D6 was 17.1 µM; at Cytochrome P450 3A4, > 45 µM. Besides, the values for the Time with Rattus norvegicus [14] and in the data set with Rattus norvegicus [15] were 256.8 s and 279 s, respectively.

The values are drawn from ChEMBL document CHEMBL4602676, “Discovery and Development of 3-(6-Chloropyridine-3-yloxymethyl)-2-azabicyclo[3.1.0]hexane Hydrochloride (SUVN-911): A Novel, Potent, Selective, and Orally Active Neuronal Nicotinic Acetylcholine α4β2 Receptor Antagonist for the Treatment of Depression” (J Med Chem, 2020).
